78 molecules from US7737155B2, “Nitrogen-containing heterocyclic compounds and methods of use thereof” (Schering Corporation, priority 2005, dated 2010) can be followed below.

Sequence of recombinant human nicotinic acid receptor (NAR) (Q8TDS4 whole entry): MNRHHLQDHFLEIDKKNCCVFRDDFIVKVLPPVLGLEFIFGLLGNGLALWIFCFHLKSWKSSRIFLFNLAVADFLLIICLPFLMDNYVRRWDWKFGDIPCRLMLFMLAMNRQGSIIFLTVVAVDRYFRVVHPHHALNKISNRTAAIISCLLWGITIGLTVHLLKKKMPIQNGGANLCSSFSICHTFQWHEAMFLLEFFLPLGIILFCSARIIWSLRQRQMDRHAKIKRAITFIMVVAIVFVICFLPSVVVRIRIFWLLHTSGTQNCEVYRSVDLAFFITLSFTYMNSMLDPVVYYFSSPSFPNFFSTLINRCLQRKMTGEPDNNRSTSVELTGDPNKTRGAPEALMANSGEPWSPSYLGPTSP

The first experiment deals with recombinant human nicotinic acid receptor (NAR) (Homo sapiens, UniProt Q8TDS4). The experiment is described as follows: Nicotinic Acid Receptor Assay: inhibition of forskolin-stimulated cAMP accumulation in CHO cells (MesoScale Discovery cAMP kit). The format is cell-based. The note with it: CHO cells expressing recombinant human NAR; forskolin-stimulated cAMP; read-out: NA EC50 camp. Put shortly:
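Compounds were diluted in PBS containing 6 μM forskolin and incubated with cells for 30 min at room temperature. cAMP was quantified by the MesoScale kit against an on-plate standard curve.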
Turning to `CCc1cc(=O)oc2nc(OCCOCc3csc4ccccc34)[nH]c(=O)c12` [Compound 662], the EC50 fell in the range of 0.001 to 100 nM.
`CCc1cc(=O)oc2nc(OCCOC3CCCCC3)[nH]c(=O)c12` [Compound 610]: the EC50 is above 1000 nM.
The same measure, in the same setting: the same measure for `CCCCc1cc(=O)oc2nc(OCC#CCOC)[nH]c(=O)c12` [Compound 670]: 0.001 to 100 nM.
With `CCc1cc(=O)oc2nc(O[C@H](C)c3ccc4ccccc4c3)[nH]c(=O)c12` [Compound 500], the EC50 fell in the range of 100 to 1000 nM.
Regarding `CCc1cc(=O)oc2nc(OCc3cccc(-c4ccccc4F)c3)[nH]c(=O)c12` [Compound 559], the EC50 was 100 to 1000 nM.
On the same count and under the same terms, the value for `COCC#CCOc1nc2oc(=O)cc(Cc3cccc(F)c3)c2c(=O)[nH]1` [Compound 684] was 0.001 to 100 nM; that for `CCOc1nc2oc(=O)cc(CCC3CCCC3)c2c(=O)[nH]1` [Compound 687] was 100 to 1000 nM; that for `CCn1c(=O)[nH]c2oc(=O)cc(CCC3CC3)c2c1=O` [Compound 278] was 100 to 1000 nM.
The same measure, in the same setting: the same measure for `CCc1cc(=O)oc2nc(OC3CCSCC3)[nH]c(=O)c12` [Compound 605]: above 1000 nM; for `CCOC(=O)CCc1cc(=O)oc2[nH]c(=O)[nH]c(=O)c12` [Compound 222]: above 1000 nM; for `CC(C)CCc1cc(=O)oc2c1c(=O)[nH]c(=O)n2CC1CC1` [Compound 259]: above 1000 nM.
Still for that read-out and setting: the same measure for `CCc1cc(=O)oc2nc(OCCCSC)[nH]c(=O)c12` [Compound 642]: 100 to 1000 nM; for `CCc1cc(=O)oc2nc(OCCCS(C)(=O)=O)[nH]c(=O)c12` [Compound 650]: 100 to 1000 nM; for `O=c1[nH]c(=O)c2c(Cc3ccc(-c4ccccc4F)cc3)cc(=O)oc2[nH]1` [Compound 205]: 100 to 1000 nM.
As for `CCc1cc(=O)oc2nc(OCc3ccccc3-n3cncn3)[nH]c(=O)c12` [Compound 571], the EC50 fell in the range of 100 to 1000 nM.
`CCc1cc(=O)oc2nc(OCc3ncoc3-c3ccccc3)[nH]c(=O)c12` [Compound 540]: the EC50 fell in the range of 100 to 1000 nM.
In the case of `Cc1cccc(COc2nc3oc(=O)cc(Cc4ccccc4)c3c(=O)[nH]2)n1` [Compound 609], the EC50 is above 1000 nM.
The same measure, in the same setting: the same measure for `CCc1cc(=O)oc2nc(OCc3ccc(-n4cccn4)cc3)[nH]c(=O)c12` [Compound 624]: 100 to 1000 nM.
As for `CCc1cc(=O)oc2nc(OCc3cccc(-c4ccccc4)n3)[nH]c(=O)c12` [Compound 520], the 50% effective concentration (EC50) was above 1000 nM.
Consider `O=c1[nH]c(=O)c2c(CC3C[C@@H]4CC[C@H]3C4)cc(=O)oc2[nH]1` (stereo partly drawn) [Compound 201], for which the EC50 is above 1000 nM.
Same read-out and setting: the same measure for `Cn1c(=O)[nH]c(=O)c2c(CCC3CC3)cc(=O)oc21` [Compound 275]: 100 to 1000 nM.
Same read-out and setting: the value for `CCCCc1c(-c2cccc(OC)c2)c(=O)oc2[nH]c(=O)[nH]c(=O)c12` [Compound 707] was above 1000 nM.
Consider `CCc1noc(C)c1COc1nc2oc(=O)cc(CC)c2c(=O)[nH]1` [Compound 666], for which the concentration for a half-maximal effect (EC50) was 0.001 to 100 nM.
The same measure, in the same setting: the same measure for `CCCCc1cc(=O)oc2nc(OCc3cc[n+]([O-])cc3)[nH]c(=O)c12` [Compound 681]: above 1000 nM.
Still for that read-out and setting: the value for `CCc1cc(=O)oc2nc(OCc3cccc(-c4ccc(OC)c(OC)c4)c3)[nH]c(=O)c12` [Compound 565] was 100 to 1000 nM; that for `CCc1cc(=O)oc2nc(OCc3cnco3)[nH]c(=O)c12` [Compound 657] was above 1000 nM.
As to `CCC(C)(C)Cc1cc(=O)oc2[nH]c(=O)[nH]c(=O)c12` [Compound 204], the EC50 was above 1000 nM.
`CCc1cc(=O)oc2nc(OCCN3CCCC3=O)[nH]c(=O)c12` [Compound 592]: the EC50 lay in the range of 100 to 1000 nM.
The same measure, in the same setting: the value for `CCc1cc(=O)oc2nc(OCCOc3ccccc3F)[nH]c(=O)c12` [Compound 614] was 100 to 1000 nM.
On the same count and under the same terms, the same measure for `CCc1cc(=O)oc2nc(OCc3conc3C)[nH]c(=O)c12` [Compound 665]: above 1000 nM; for `CCc1cc(=O)oc2nc(OCc3cc(-c4ccccc4Cl)no3)[nH]c(=O)c12` [Compound 640]: 100 to 1000 nM.
As to `CCc1cc(=O)oc2nc(OCc3ccc(C(F)(F)F)cc3C(F)(F)F)[nH]c(=O)c12` [Compound 514], the half-maximal effective concentration (EC50) was above 1000 nM.
On the same count and under the same terms, the same measure for `O=c1[nH]c(=O)c2c(CC3CCCC(C(F)(F)F)C3)cc(=O)oc2[nH]1` (stereo not drawn) [Compound 213]: 100 to 1000 nM; for `CCc1cc(=O)oc2nc(OCC(=O)c3ccccc3)[nH]c(=O)c12` [Compound 603]: 100 to 1000 nM.
Same read-out and setting: the value for `CCc1cc(=O)oc2nc(OCCc3cccc4ccccc34)[nH]c(=O)c12` [Compound 537] was above 1000 nM; that for `CCc1cc(=O)oc2nc(OC[C@H]3CN([C@H](C)c4ccccc4)C(=O)O3)[nH]c(=O)c12` [Compound 613] was 100 to 1000 nM.
Still for that read-out and setting: the value for `CCc1cc(=O)oc2nc(OCC#Cc3ccccc3)[nH]c(=O)c12` [Compound 522] was 100 to 1000 nM; that for `CCCOCCCc1cc(=O)oc2[nH]c(=O)[nH]c(=O)c12` [Compound 270] was 0.001 to 100 nM.
Regarding `CC1CCC(Cc2cc(=O)oc3[nH]c(=O)n(C4CCC4)c(=O)c23)CC1` (stereo not drawn) [Compound 246], the EC50 was above 1000 nM.
Still for that read-out and setting: the value for `CC(C)(C)Cc1cc(=O)oc2[nH]c(=O)[nH]c(=O)c12` [Compound 240] was above 1000 nM; that for `O=c1[nH]c(=O)c2c(CCC34CC5CC(CC(C5)C3)C4)cc(=O)oc2[nH]1` [Compound 215] was above 1000 nM; that for `CCCCc1cc(=O)oc2nc(OCCOC)[nH]c(=O)c12` [Compound 660] was above 1000 nM.
The same measure, in the same setting: the same measure for `COC(C)(C)CCc1cc(=O)oc2[nH]c(=O)[nH]c(=O)c12` [Compound 279]: above 1000 nM.
On the same count and under the same terms, the value for `O=c1cc(CCCCC2CC2)c2c(=O)[nH]c(=O)n(C3CCC3)c2o1` [Compound 210] was 100 to 1000 nM; that for `O=C(OCc1ccccc1)N1CCC(CCc2cc(=O)oc3[nH]c(=O)[nH]c(=O)c23)CC1` [Compound 234] was above 1000 nM.
Consider `CCc1c(C#Cc2ccccc2)c(=O)oc2[nH]c(=O)[nH]c(=O)c12` [Compound 219], for which the EC50 is above 1000 nM.
Still for that read-out and setting: the value for `CCc1cc(=O)oc2nc(OCC#CCOC)[nH]c(=O)c12` [Compound 636] was 100 to 1000 nM; that for `CCc1cc(=O)oc2nc(OCCOc3ccccc3)[nH]c(=O)c12` [Compound 525] was 100 to 1000 nM; that for `CCc1cc(=O)oc2nc(OCc3ccnc(NC(=O)C(C)(C)C)c3)[nH]c(=O)c12` [Compound 653] was above 1000 nM.
As for `O=c1[nH]c(=O)c2c(CCCOC3CCCC3)cc(=O)oc2[nH]1` [Compound 271], the EC50 was in the range of 100 to 1000 nM.
Still for that read-out and setting: the value for `CCOCCCc1cc(=O)oc2[nH]c(=O)[nH]c(=O)c12` [Compound 239] was 0.001 to 100 nM; that for `O=c1[nH]c(=O)c2c(CCC(C3CC3)C3CC3)cc(=O)oc2[nH]1` [Compound 293] was 100 to 1000 nM.

Staying with this experiment, now noted: NA EC50 camp (nM), CHO cells expressing recombinant human NAR; forskolin-stimulated cAMP.
`CCc1noc(CC)c1COc1nc2oc(=O)cc(CC)c2c(=O)[nH]1` [Compound 667]: the concentration for a half-maximal effect (EC50) lay in the range of 100 to 1000 nM.
Still for that read-out and setting: the same measure for `CCc1cc(=O)oc2nc(OCC#CC3CCCCC3)[nH]c(=O)c12` [Compound 638]: 100 to 1000 nM.

Staying with this experiment, now noted: NA EC50 camp, inhibition of forskolin-stimulated cAMP accumulation, CHO cells expressing recombinant human NAR.
Consider `CC1(CCCc2cc(=O)oc3nc(C(F)F)[nH]c(=O)c23)CC1` [Compound 811], for which the EC50 amounted to 22 nM.
Still for that read-out and setting: the value for `O=c1cc(CCC2CC2)c2c(=O)[nH]c(C(F)F)nc2o1` [Compound 752] was 248 nM.

The experiment is the same for the next values; noted with them: inhibition of forskolin-stimulated cAMP accumulation, CHO cells expressing recombinant human NAR; read-out: NA EC50 camp.
Turning to `O=c1[nH]c(=O)c2c(CC3CCCC3)cc(=O)oc2[nH]1` [Compound 104], the EC50 came to 47 nM.
On the same count and under the same terms, the same measure for `CCOc1nc(=O)[nH]c2oc(=O)cc(CCC3CCC3)c12` [Compound 786]: 5330 nM; for `O=c1[nH]c(=O)c2c(CCCCC(F)(F)F)cc(=O)oc2[nH]1` [Compound 112]: 14.4 nM; for `COn1c(=O)[nH]c(=O)c2c(CCC3CCCC3)cc(=O)oc21` [Compound 773]: 48.5 nM.
`Cc1cc(=O)oc2nc(CF)[nH]c(=O)c12` [Compound 810]: the EC50 is above 10000 nM.
The same measure, in the same setting: the value for `O=c1[nH]c(=O)c2c(CC3CC3)cc(=O)oc2[nH]1` [Compound 117] was 155 nM; that for `CCCCc1cc(=O)oc2[nH]c(=O)n(N3CCOCC3)c(=O)c12` [Compound 797] was above 1000 nM; that for `CCCCCCc1cc(=O)oc2nc(CF)[nH]c(=O)c12` [Compound 755] was 286 nM.
Still for that read-out and setting: the value for `O=c1cc(CCC2CCCC2)c2c(=O)[nH]c(CF)nc2o1` [Compound 747] was 1230 nM; that for `CCOn1c(=O)[nH]c2oc(=O)cc(CCC3CCC3)c2c1=O` [Compound 777] was 5600 nM; that for `CCCCc1cc(=O)oc2[nH]c(=O)n(O)c(=O)c12` [Compound 806] was 256 nM.
On the same count and under the same terms, the value for `O=c1cc(CCCC2CC2)c2c(=O)n(CF)c(=O)[nH]c2o1` [Compound 802] was 12 nM.
In the case of `COn1c(=O)[nH]c2oc(=O)cc(CCCC3CC3)c2c1=O` [Compound 774], the EC50 stood at 28 nM.
The same measure, in the same setting: the same measure for `C#CCCCc1cc(=O)oc2[nH]c(=O)[nH]c(=O)c12` [Compound 128]: 6.3 nM; for `CCCCc1cc(=O)oc2[nH]c(=O)n(C(F)F)c(=O)c12` [Compound 816]: 291 nM; for `CCCCc1cc(=O)oc2[nH]c(=O)nc(OCCF)c12` [Compound 827]: 690 nM.
On to `CCCc1cc(=O)oc2[nH]c(=O)nc(OCCF)c12` [Compound 825], for which the EC50 turned out to be 616 nM.
For `COCCn1c(=O)[nH]c2oc(=O)cc(CCC3CC3)c2c1=O` [Compound 800], the EC50 was above 10000 nM.
Same read-out and setting: the value for `CCCc1cc(=O)oc2[nH]c(=O)nc(OCF)c12` [Compound 832] was 304 nM; that for `COn1c(=O)[nH]c2oc(=O)cc(CCC3CCCC3)c2c1=O` [Compound 772] was 39 nM.
The same measure, in the same setting: the value for `CCCCc1cc(=O)oc2nc(O[C@H]3C[C@H](COCc4ccccc4)C3)[nH]c(=O)c12` [Compound 791] was 50 nM; that for `CCCCC#CCOc1nc2oc(=O)cc(CCCC3CC3)c2c(=O)[nH]1` [Compound 719] was 152 nM.
